According to patent publication US20080300298A1, “Honokiol Derivates For the Treatment of Proliferative Disorders” (priority 2005, published 2008):

System: MCF-7 and MDA-MB-231 breast cancer cell lines
Experiment: MTT assay of drug combinations (additive model)
Format: cell-based
Method: 3-(4,5-dimethylthiazol-2-yl)-2,5-diphenyltetrazolium bromide (MTT) proliferation assays: 3×10^3 cells/well were plated in 96-well plates, cultured in the appropriate culture media containing 10% FCS, and treated with either control vehicle or various concentrations of HNK, alone or with a secondary drug, as indicated. All secondary drugs were freshly diluted in growth media and immediately added to cells along with the HNK. After 24 hours of incubation at 37° C., 5% CO2, the cells were cultured for four hours with 10% MTT reagent (5 mg/ml; Sigma-Aldrich, St. Louis, Mo.). The medium was aspirated, and the cells were dissolved by dimethyl sulfoxide (DMSO). Absorbance of the formazan product was measured by an enzyme-linked immunosorbent assay reader (Macintosh).
Model for drug interactions in vitro: The analysis of interaction between two drugs was conducted using the additive model (Xu D., et al. Cancer Lett. 2006 Jan. 7; [Electronic publication; ahead of print]; Sutherland, R. L., et al. Cancer Res. 1983 September; 43(9):3998-4006). The model predicts the effect of a combination to be equal to the product of the effect of its constituents. […] A ratio between the observed and the predicted viability by the additive model was calculated for all combinations. […]

C=CCc1ccc(O)c(-c2ccc(O)c(CC=C)c2)c1 [HNK, Honokiol]
interaction of HNK and SAHA (additive model) (HNK 10-50 μM with SAHA 2 μM, 24 hours): synergistic effect | interaction of HNK and the other drugs tested (additive model) (with paclitaxel 250 nM, doxorubicin 300 nM, 4-HT 100 nM): Additive effect
